From US11447482B1, “Imidazopyridine and oxazolopyridine derivatives and analogs thereof, methods of preparation thereof, methods of HIF-2A pathway inhibition, and induction of ferroptosis” (KUDA Therapeutics, Inc., priority 2019, dated 2022)

Columns and labels:
Assay type in all cases: cell-based, human
IRP2 = test: Western blot of treated 786-0 cells: IRP2
Protocol: (§1) Western blots were performed to determine the effects of the compounds on levels of HIF-2α and other relevant proteins. 786-0 (pVHL deficient clear cell kidney cancer cells) were purchased from ATCC were plated at 1×10E5 cells/well in 2 ml DMEM with 10% FBS/well in 6-well tissue culture plates. Cells were allowed to adhere overnight in a humidified incubator at 37° C. with 5% CO2, after which the appropriate concentrations of compounds in DMSO were added. DMSO concentrations were kept constant in all wells. After 24 hour's exposure to the compounds, cells were lysed and subjected to western blotting according to standard protocols (Polek, Talpaz et al. 2003). Antibodies for HIF-2α and Glyceraldehyde 3-Phosphate Dehydrogenase (GAPDH) were purchased from Cell Signaling Technology (Danvers, Mass.), whereas antibodies to iron responsive element binding protein 2 (IRP2) and Glutathione Peroxidase 4 (GPX4) were from Santa Cruz Biotechnology (Dallas, Tex.) and R&D Systems, Inc (Minneapolis, Minn.). Representative data in FIG. 3 show a dose-dependent effect of compounds in decreasing HIF-2α. Compounds also impact cellular iron sensing given by increased IRP2, which taken together indicate that cells sense decreased amounts of available iron. Representative data shown in FIG. 5 Part C show a dose dependent effect of the compounds on GPX4, which may indicate decreased resistance to ferroptosis.

HIF-2α = test: Western blot of treated 786-0 cells: HIF-2α; details: 786-0 CCRCC cells, 24 hours
Protocol: as §1

786-0 CCRCC cells = test: ICP-MS of cellular iron, zinc and copper; details: 786-0 cells, 24 hours, 1.5 μM KD002 or KD021, 2.5 μM KD025HCl, versus DMSO
Protocol: These studies were performed to determine the content of iron and other transition metals in cells after exposure the compounds described herein. 786-0 cells were seeded at 1.5 million cells/flask in T75 cm^2 flasks in DMEM+10% FBS, and allowed to adhere overnight. Cells were then treated with indicated concentrations of compounds in DMSO or DMSO alone (vehicle) for a further 24 hours, after which cells were detached by trypsinization, counted, washed twice in PBS and pelleted. Experiments were performed using three replicate T75 cm^2 flasks per condition. A 5:1 mixture of nitric acid (OPTIMA Grade, 70%, Fisher Scientific) and ultrapure hydrogen peroxide (ULTREX II, 30%, Fisher Scientific) was added to cell pellets. This mixture was allowed to digest overnight, heated until dry, and resuspended in 2% nitric acid for analysis using an Agilent 7900 ICP-MS (Agilent Technologies, Santa Clara, Calif.). Calibration standard solutions for determination of Fe were prepared from Agilent multi-element calibration standard-2A. An Agilent Environmental Calibration Standard was used as an independent control. PBS-only control digestions were used to measure background. Metal readings were normalized to cell number. Data obtained from these studies for three replicate readings (with SEM) are shown in FIG. 4, which show an increase in cellular iron (Fe) content after treatment with indicated compounds.

With `COc1ccc(-c2nnc(Nc3nc4c(OC)nccc4[nH]3)o2)cc1OC` [KD025HCl, N-(4-Methoxy-1H-imidazo[4,5-c]pyridin-2-yl)-5-(3,4-dimethoxyphenyl)-1,3,4-oxadiazol-2-amine] the “IRP2 protein relative to GAPDH (western blot)” value (IRP2; 786-0 CCRCC cells, 24 hours) was “increases”, the “IRP2 protein (western blot) at higher concentrations” value (IRP2; 786-0 cells, higher concentrations of KD025HCl, FIG. 4 Part D) was “decrease” and the “HIF-2α protein relative to GAPDH (western blot)” value (HIF-2α) was “decreases”. The “cellular copper (Cu) content (ICP-MS)” value (786-0 CCRCC cells) was “increases”, the “cellular iron (Fe) content (ICP-MS)” value (786-0 CCRCC cells) was “increases” and the “cellular zinc (Zn) content (ICP-MS)” value (786-0 CCRCC cells) was “increases”.
